The values below come from patent US9249095B2, “2-methylthiopyrrolidines and their use for modulating bacterial quorum sensing” (priority 2011, dated 2016).

Broadly, the inhibition is the drop in the measured response relative to a control, in per cent.

Assay [1] deals with LasR (Pseudomonas aeruginosa, UniProt P25084). Conditions: Smith et al, reference 9; cited from earlier work.
Assay [2] relates to P. aeruginosa las AHL-mediated pathway (PlasI-lacZ reporter). Nature of the assay: Anti-quorum sensing β-galactosidase assay, las biomonitor (PlasI-lacZ with lasR expressed in E. coli DH5α). Type of assay: cell-based, Pseudomonas aeruginosa. Conditions: for effect on las activity / lasI promoter expression (in words): tested at 50-200 μg/mL against 2 μM 3-oxo-C12-AHL. Here is the method:
Anti-Quorum Sensing Assay (β-Galactosidase Assay). An overnight (O/N) culture of Escherichia coli DH5α harboring the plasmids pSC11, which contains a PlasI-lacZ translational fusion (24), and pJN105L, which contains a PBAD-lasR expression plasmid (25) grown in LB media (10 g tryptone, 5 g yeast extract, 5 g sodium chloride per liter) supplemented with ampillicin (100 μg/ml) and gentamycin (15 μg/ml), was diluted to an OD600 of 0.150. At this time, arabinose (0.2% w/v), N-3-(oxododecanoyl)homoserine lactone (3-oxo-C12-AHL; 2 μM), and either the compound under analysis or solvent (DMSO), was added to the culture (1.5 mL). A negative control containing only solvent and arabinose (0.2% w/v) was also assayed. The cultures were incubated with shaking for three hours at 37° C.
(§1) The conditions for the rhl biomonitor Escherichia coli DH5α harboring pECP61.5 plasmid, which contains Ptac-rhlR and PrhlA-lacZ (4), were essentially same except that the LB medium was only supplemented with ampillicin (100 μg/ml), the O/N culture was diluted to an OD600 of 0.150, induced with 1 mM IPTG, 2 μM C4—HSL and the compounds or the controls added when the OD600 reached 1.0. After incubation at 37° C. for 4 hours with shaking, β-galactosidase activity was assayed as described previously (28). Miller units were calculated as described (29). Assays were repeated at least twice. For each biological replicate, experimental triplicates were performed and the average percent activity calculated by dividing the average Miller units from the samples containing compound or extract by the average Miller units from the sample containing solvent and multiplying by 100. Significance of inhibition was determined using a paired two-tailed Student t-test.
(§2) Strains: E. coli DH5α harboring a PBAD-lasR expression plasmid and a PlasI-lacZ translational fusion plasmid was used as a biomonitor for the P. aeruginosa Las QS system, and e. coli XL-1Blue harboring a plasmid containing rhlA::lacZ translational fusion and Ptac-rhlR was used as a biomonitor for the P. aeruginosa Rhl QS system. V. harveyi strain B392 (MAV) was used.
Screening against las signaling. To determine the effect of the lactams (7, 16, and 17) and the cyclic azahemiacetal derivatives (10, 20 and 21) on the P. aeruginosa las AHL-mediated pathway, a las-dependent β-galactosidase reporter (PlasI-lacZ) was expressed with lasR in E. coli (24-25). […] The effect of synthetic compounds on the las activity was also compared with the addition of DMSO as a solvent. The propylthio lactam 7a and its azahemiacetal counterpart 10a were initially screened at a concentration of 100 μg/mL for their activity against the las system. […] This was dependent upon the addition of 2 μM of 3-oxo-C12-AHL. […] Cell growth was not inhibited by the addition of lactam and azahemiacetal compounds at the tested concentrations (data not shown).

Assay [3] relates to Vibrio harveyi. Nature of the assay: Luminescence assay in Vibrio harveyi. Type of assay: cell-based. Here is the method:
Luminescence Assay: Vibrio harveyi was grown in AB medium. A 2.5 mL aliquot of overnight culture of V. harveyi was added to 2.5 μL and 10 μL of each compound as well as the solvent. The compound was dissolved in water or DMSO to serve as a control. Growth and luminescence were measured simultaneously in a modified Spec20 for three hours. Growth was measured as OD600 and luminescence was recorded in light units (1 LU=6.51×10^8 quanta/sec/mL).
as §2

Assay [4] relates to P. aeruginosa rhl AHL-mediated pathway (PrhlA-lacZ reporter). The experiment in a line: Anti-quorum sensing β-galactosidase assay, rhl biomonitor (PrhlA-lacZ with rhlR expressed in E. coli). Type of assay: cell-based, Pseudomonas aeruginosa. As to conditions: for activity at 50 µg/mL / activity at 100 µg/mL / activity at 150 µg/mL / activity at 200 µg/mL: Escherichia coli, 4 h, read-out: Percent Activity ± Standard Deviation (PrhlA-lacZ expression relative to DMSO treated control); for effect on rhl activity (in words): tested at 50-200 μg/mL against 2 μM C4-AHL. How it is done:
as §1, §2
Screening Against the rhl Pathway. To determine the effect of the lactams (7, 16, and 17) and the cyclic azahemiacetal derivatives (10, 20 and 21) on the P. aeruginosa rhl AHL-mediated pathways, a rhl-dependent β-galactosidase reporter (PrhlA-lacZ) was expressed with rhlR in E. coli (24-25). […] The lactam analogues 7a-d stimulated rhl QS activities at higher concentrations with moderate potency. […] The strong inhibition observed with propylthio 10a and hexylthio 10b azahemiacetal analogues having side chain lengths similar to C4-AHL is in agreement with the structure activity relationship reported for various synthetic AHL mimetics targeting RhlR (26).

The mark [5] stands for this setting: Pseudomonas aeruginosa, read-out: inhibition of las activity.
Setting [6] is: Pseudomonas aeruginosa, read-out: inhibition of las reporter activity.

LasR, sequence (P25084 whole entry): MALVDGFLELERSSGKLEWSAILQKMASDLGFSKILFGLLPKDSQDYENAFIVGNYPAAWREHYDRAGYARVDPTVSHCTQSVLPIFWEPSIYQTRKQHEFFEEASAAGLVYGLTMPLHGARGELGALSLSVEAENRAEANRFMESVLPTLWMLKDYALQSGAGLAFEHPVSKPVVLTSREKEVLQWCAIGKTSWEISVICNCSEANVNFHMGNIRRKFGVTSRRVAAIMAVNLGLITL

As for `CCCCCCCCCC(=O)CC(=O)NC1CCCCC1=O` (stereo not shown) [3-oxo-C12-(2-aminocyclohexanone)], in assay [1], the “antagonism of LasR system (in words)” value was “strong antagonist”.
For `CCCCCCCCCC(=O)CC(=O)N[C@H]1CCOC1=O` [3-oxo-C12-AHL, N-3-(oxododecanoyl)homoserine lactone, reference compound], in assay [2], the “effect on las activity / lasI promoter expression (in words)” value is “activated the PlasI-lacZ”.
As for `N[C@@H](CCSCC1C(O)C(O)C(=O)N1Cc1ccccc1)C(=O)O` (stereo partly shown) [BDOH], in assay [3], the “anti-QS effect against V. harveyi (in words)” value is on record as “strong anti-QS effect”.
`CCCSCC1CCC(=O)N1` (stereo not shown) [Compound 7a, 5-(Propylthiomethyl)pyrrolidin-2-one]: the inhibition at 100 µg/mL in assay [2] (setting [5]) is about 28%. Moreover, the “effect on las activity / lasI promoter expression (in words)” value in assay [2] is “inhibited las activity at all concentrations tested”. In addition, the “effect on las activity / lasI promoter expression (in words)” value in assay [2] (listed as OMPP) was “dosed dependent inhibition”. In addition, in assay [4], the activity at 50 µg/mL worked out at 104 ± 24%, the activity at 100 µg/mL was determined as 118%, the activity at 150 µg/mL is 104 ± 13% and the activity at 200 µg/mL is 108 ± 17%.
In the case of `CCCCCCSCC1CCC(=O)N1` (stereo not shown) [Compound 7b, 5-(Hexylthiomethyl)pyrrolidin-2-one], in assay [2], the “effect on las activity / lasI promoter expression (in words)” value is listed as “dosed dependent inhibition”. Also, in assay [4], the activity at 50 µg/mL stood at 126 ± 8%, the activity at 100 µg/mL was 126 ± 29%, the activity at 150 µg/mL was found to be 130 ± 31% and the “effect on rhl activity (in words)” value is “most active”.
`CCCCCCCCCSCC1CCC(=O)N1` (stereo not shown) [Compound 7c, 5-(Nonylthiomethyl)pyrrolidin-2-one]: in assay [2] (setting [5]), the inhibition at 50 µg/mL worked out at 28%. The “effect on las activity / lasI promoter expression (in words)” value in assay [2] is “greatest inhibition at all concentrations tested”. For the same compound, in assay [4], the activity at 50 µg/mL came to 95 ± 3%, the activity at 100 µg/mL came out at 115 ± 30%, the activity at 150 µg/mL came to 108 ± 12% and the activity at 200 µg/mL was found to be 137 ± 46%.
For the compound `CCCCCCCCCCCCSCC1CCC(=O)N1` (stereo not shown) [Compound 7d, 5-(Dodecylthiomethyl)pyrrolidin-2-one], in assay [2] (setting [5]), the inhibition at 50 µg/mL is 48%. In addition, the “effect on las activity / lasI promoter expression (in words)” value in assay [2] is reported as “greatest inhibition at all concentrations tested”. Also, in assay [4], the activity at 50 µg/mL is 103 ± 7%, the activity at 100 µg/mL was found to be 106 ± 6%, the activity at 150 µg/mL is 109 ± 8% and the activity at 200 µg/mL was found to be 106 ± 5%.
On to `CCCSCC1CCC(O)N1` (stereo not shown) [Compound 10a, 5-(Propylthiomethyl)pyrrolidin-2-ol], for which, in assay [3], the “anti-QS effect against V. harveyi (in words)” value is listed as “strong anti-QS effect”. Besides, the “stimulation of las reporter activity” value in assay [2] (50 μg/mL, 2 μM 3-oxo-C12-AHL) is recorded as about 2.3 fold. For the same compound, the “enhancement of las reporter activity” value in assay [2] (100 μg/mL, 2 μM 3-oxo-C12-AHL) worked out at 15%. In assay [2] (setting [6]), the inhibition at 150 µg/mL came to 69% and the inhibition at 200 µg/mL is 89%. Moreover, in assay [4], the activity at 50 µg/mL came out at 121 ± 6%, the activity at 100 µg/mL was found to be 138 ± 3%, the activity at 200 µg/mL worked out at 9% and the “effect on rhl activity (in words)” value is “inhibited rhl activity”.
Consider `CCCCCCSCC1CCC(O)N1` (stereo not shown) [Compound 10b, 5-(Hexylthiomethyl)pyrrolidin-2-ol], for which the “inhibition of las activity” value in assay [2] (all concentrations tested higher than 50 μg/mL) amounted to 100%. Also, the “effect on las activity / lasI promoter expression (in words)” value in assay [2] is on record as “stimulated QS at 50 μg/mL but with much lesser potency”. Moreover, in assay [4], the activity at 50 µg/mL turned out to be 26% and the “effect on rhl activity (in words)” value was “inhibited rhl activity”. For the same compound, the “inhibition of rhl signaling (in words)” value in assay [4] (concentrations of 100 μg/mL and higher) is recorded as “completely inhibited”.
For the compound `CCCCCCCCCSCC1CCC(O)N1` (stereo not shown) [Compound 10c, 5-(Nonanylthiomethyl)pyrrolidin-2-ol], the “effect on las activity / lasI promoter expression (in words)” value in assay [2] is given as “moderate activity”. Moreover, in assay [4], the activity at 50 µg/mL came out at 93 ± 12%, the activity at 100 µg/mL was found to be 80 ± 13%, the activity at 150 µg/mL turned out to be 100 ± 11% and the activity at 200 µg/mL was determined as 99 ± 3%. Also, in assay [4], the “effect on rhl activity (in words)” value is “inactive”.
In the case of `CCCCCCCCCCCCSCC1CCC(O)N1` (stereo not shown) [Compound 10d, 5-(Dodecylthiomethyl)pyrrolidin-2-ol], in assay [2], the “effect on las activity / lasI promoter expression (in words)” value was “moderate activity”. Besides, in assay [4], the activity at 50 µg/mL was 98 ± 13%, the activity at 100 µg/mL was 93 ± 27%, the activity at 150 µg/mL was found to be 91 ± 8% and the activity at 200 µg/mL worked out at 96 ± 5%. Further, the “effect on rhl activity (in words)” value in assay [4] was “inactive”.
Turning to `CCCCCCSCC1NC(=O)C(O)C1O` (stereo not shown) [Compound 16, 3,4-Dihydroxy-5-(hexylthiomethyl)pyrrolidin-2-one], in assay [2], the “effect on las activity / lasI promoter expression (in words)” value is given as “inhibit las activity at all concentrations tested but only with moderate potency”. Moreover, in assay [4], the activity at 50 µg/mL came out at 132 ± 36%, the activity at 100 µg/mL was determined as 129 ± 10%, the activity at 150 µg/mL came to 148 ± 9% and the activity at 200 µg/mL was 161 ± 7%. The “effect on rhl activity (in words)” value in assay [4] is “stimulated rhl activities with moderate potency”.
Consider `CCCCCCCCCSCC1NC(=O)C(O)C1O` (stereo not shown) [Compound 17, 3,4-Dihydroxy-5-(nonylthiomethyl)pyrrolidin-2-one], for which the “effect on las activity / lasI promoter expression (in words)” value in assay [2] is listed as “inhibit las activity at all concentrations tested but only with moderate potency”. In assay [4], the activity at 50 µg/mL worked out at 106 ± 3%, the activity at 150 µg/mL amounted to 115 ± 11%, the activity at 200 µg/mL stood at 135 ± 5% and the “effect on rhl activity (in words)” value is on record as “stimulated rhl activities with moderate potency”.
Consider `CCCCCCSCC1NC(O)C(O)C1O` (stereo not shown) [Compound 20, 3,4-Dihydroxy-5-(hexylthiomethyl)pyrrolidin-2-ol], for which the “effect on las activity / lasI promoter expression (in words)” value in assay [2] is listed as “inhibit las activity at all concentrations tested but only with moderate potency”. In assay [4], the activity at 50 µg/mL was found to be 94 ± 8%, the activity at 100 µg/mL was 105 ± 3%, the activity at 150 µg/mL turned out to be 109 ± 12% and the activity at 200 µg/mL amounted to 116 ± 18%. Also, in assay [4], the “effect on rhl activity (in words)” value is listed as “stimulated rhl activities with moderate potency”.
Consider `CCCCCCCCCSCC1NC(O)C(O)C1O` (stereo not shown) [Compound 21, 3,4-Dihydroxy-5-(nonylthiomethyl)pyrrolidin-2-ol], for which, in assay [2], the “effect on las activity / lasI promoter expression (in words)” value is reported as “inhibit las activity at all concentrations tested but only with moderate potency”. In assay [4], the activity at 50 µg/mL worked out at 98 ± 5%, the activity at 150 µg/mL is 116 ± 9%, the activity at 200 µg/mL stood at 121 ± 14% and the “effect on rhl activity (in words)” value is given as “stimulated rhl activities with moderate potency”.
For the compound `CCCC(=O)N[C@H]1CCOC1=O` [Compound C4-AHL, N-butanoyl-L-homoserine lactone, reference compound], the “effect on rhl activity (in words)” value in assay [4] is reported as “activated the rhl β-galactosidase reporter”.
